# Reference: publication PMC7285070, “Quercetin Is a Flavonoid Breast Cancer Resistance Protein Inhibitor with an Impact on the Oral Pharmacokinetics of Sulfasalazine in Rats” (Pharmaceutics, 2020)
# “And” between values parts separate entries of the source, which are not always exact repeats. Identical values can stand only once. Like-named read-outs stand apart in the source and are kept apart here.
# Experiments:
# mouse BCRP = system: mouse BCRP; parameters: method as in PMID 15608138; conditions: cited from earlier work
# [1] = parameters: method as in PMID 15608138; conditions: rats or P-gp-knockout mice; cited from earlier work
# human BCRP [2] = biological target: T1, human BCRP (Homo sapiens, UniProt Q9UNQ0); parameters: expressed in transfected cells; host or cells: MDCKII (Madin-Darby canine kidney II) cells; method as in PMID 15608138; conditions: cited from earlier work
# T1 sequence (Q9UNQ0 1-655): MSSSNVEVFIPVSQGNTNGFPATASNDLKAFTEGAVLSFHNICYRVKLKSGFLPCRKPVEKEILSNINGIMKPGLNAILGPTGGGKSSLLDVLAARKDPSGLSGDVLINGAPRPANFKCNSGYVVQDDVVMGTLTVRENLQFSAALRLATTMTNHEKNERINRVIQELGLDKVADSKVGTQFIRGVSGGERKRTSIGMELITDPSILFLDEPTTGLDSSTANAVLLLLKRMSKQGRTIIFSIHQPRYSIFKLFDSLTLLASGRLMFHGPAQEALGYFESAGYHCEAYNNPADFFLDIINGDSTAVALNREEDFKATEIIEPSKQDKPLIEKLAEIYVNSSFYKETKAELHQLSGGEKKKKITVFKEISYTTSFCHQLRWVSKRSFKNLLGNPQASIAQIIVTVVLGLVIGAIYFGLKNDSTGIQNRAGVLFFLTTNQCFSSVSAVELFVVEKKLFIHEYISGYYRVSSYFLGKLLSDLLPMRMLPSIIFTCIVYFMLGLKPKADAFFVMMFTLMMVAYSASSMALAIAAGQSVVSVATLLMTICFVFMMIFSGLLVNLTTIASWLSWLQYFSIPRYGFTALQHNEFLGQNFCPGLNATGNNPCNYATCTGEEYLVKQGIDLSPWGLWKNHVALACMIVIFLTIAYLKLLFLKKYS
# HeLa cells [3] = assay: FACS cellular accumulation of mitoxantrone (flow cytometry); assay type: cell-based, human; conditions: for percentage of cells with a significant uptake of MX, higher than at 2 h of treatment with MX alone: 1 μM MX alone
# Description: The cellular accumulation of quercetin was measured by FACSCalibur flow cytometry (Becton Dickinson, San Jose, CA, USA). For FACScan analysis, 2 × 10^5 HeLa cells/well were seeded into 6-well cell culture plates on the day before the experiment. On the following day, cells were treated with vehicle or quercetin and 1 μM MX. A time course experiment was conducted on HeLa cells following treatment with quercetin (1 and 100 μM) for 2, 4, and 6 h. After treatment, the cells were harvested by trypsinization and transferred to a fluorescence-activated cell sorting (FACS) tube, pelleted by centrifugation (1500 rpm, 5 min), and then resuspended in 200 μL of PBS. Flow cytometry analysis was performed using red fluorescence. A minimum of 10,000 cells were acquired per sample.
# HeLa cells [4] = assay: Cytotoxicity assay (CCK-8) of mitoxantrone with or without BCRP inhibitor; assay type: cell-based, human; conditions: for IC50: 24 h, CCK-8
# Description: Dojindo Molecular Technologies, Kumamoto, Japan) following the manufacturer’s instructions. HeLa cells (at a density of 1 × 10^4 cells per well) were seeded and cultured overnight in 96-well plates. […] The absorbance was measured at a wavelength of 450 nm using a microplate reader (BioTeK, Highland Park, WI, USA).
# human BCRP [5] = biological target: T1, human BCRP; conditions: read-out: Km value for prazosin; BCRP-mediated transport; cited from earlier work
# BCRP [6] = system: BCRP; parameters: method as in PMID 21354800; conditions: MDCKII/BCRP cells; read-out: IC50, Hoechst 33342 accumulation; cited from earlier work
# human BCRP [7] = biological target: T1, human BCRP; assay: Bi-directional transport of prazosin in MDCKII/BCRP cells; assay type: cell-based; parameters: expressed in transfected cells; host or cells: MDCKII (Madin-Darby canine kidney II) cells
# Description: At the end of the incubation, aliquots (300 μL for the apical chamber and 500 μL for the basolateral chamber) of the incubation mixture were collected from the donor and receiver chambers and subjected to LC-MS/MS assays. […] Briefly, an aliquot (50 μL) of a sample was vortex-mixed with an acetonitrile solution containing glipizide (300 ng/mL, internal standard); this was followed by centrifugation (16,100 × g for 5 min at 4 °C). An aliquot (5 μL) of the supernatant was directly injected into the LC-MS/MS system. […] For the internal standard glipizide, the transition m/z 445.[…]/z 320.9 was used. […] The efflux ratio (ER) was calculated by dividing the B-to-A apparent permeability coefficient (Papp, B-to-A) by the A-to-B apparent permeability coefficient (Papp, A-to-B). In the inhibition studies, the percentage of the control efflux ratio (%ER) was also calculated by dividing the value for ER in the presence of the inhibitor by that in the absence of the inhibitor (i.e., in the control).
# [8] = parameters: method as in PMID 15948033; conditions: 10 mg/kg oral administration to rats; cited from earlier work
# BCRP [9] = system: BCRP; parameters: method as in PMID 21354800; conditions: MCF-7/MX cells; read-out: IC50, Hoechst 33342 accumulation; cited from earlier work
# [10] = parameters: method as in PMID 22711747; conditions: BCRP-knockout rats, oral; cited from earlier work
# in vivo = assay: in vivo; parameters: species or system rats; conditions: rat
# Description: To determine whether quercetin affects the intestinal efflux mediated by BCRP, we divided the male rats into two groups: A sulfasalazine (a substrate of BCRP) control group and a quercetin pretreatment plus sulfasalazine group (n = 4, each). Considering the similar expression levels of intestinal BCRP between male and female rats, male rats were used in this study. Briefly, overnight fasted male SD rats were anesthetized by intramuscular administration of 50 mg/kg tiletamine HCl/zolazepam HCl (Zoletil®) (Vibrac, TX, USA) and 10 mg/kg xylazine HCl (Rompun®, Bayer, Puteaux, France). While the rats were anesthetized, the femoral artery (for blood sampling) and vein (for supplementing body fluids) were catheterized using polyethylene tubing (PE 50; Clay Adams, Parsippany, NJ, USA). Upon recovery from anesthesia (i.e., after 4 h), quercetin was administered by oral gavage at 10 mg/kg (or 0 mg/kg in the case of the sulfasalazine control group; DMSO/polyethylene glycol 400/saline [1:4:5 (v/v/v)]). The pretreatment dose of quercetin was determined based on the compound solubility in the dosing vehicle and the likely daily dose of human dietary supplement. […] Immediately after each blood collection, an identical volume of saline was intravenously provided to the animal to compensate for fluid loss. To prevent blood clotting during blood collection, the cannula was filled with 25 IU/mL heparinized saline. The plasma fraction was separated from the blood samples by centrifugation (16,100 × g for 5 min at 4 °C) and stored at -80 °C until the LC-MS/MS assay. […] Briefly, an aliquot (50 μL) of a sample was vortex-mixed with an acetonitrile solution containing glipizide (300 ng/mL, internal standard); this was followed by centrifugation (16,100 × g for 5 min at 4 °C). An aliquot (5 μL) of the supernatant was directly injected into the LC-MS/MS system. […] For the internal standard glipizide, the transition m/z 445.[…]/z 320.9 was used. […] Standard non-compartmental pharmacokinetic analysis was carried out using WinNonlin Professional 5.0.1 software (Pharsight, Cary, NC, USA) to calculate the pharmacokinetic parameters, including the peak concentration (Cmax), time of the peak concentration (tmax), elimination half-life (t1/2), area under the plasma concentration-time curve from time zero to the last sampling point, 8 h (AUC8h), and elimination clearance (CL/F).
structure (smiles),measurement,setting,value
"O=c1cc(-c2ccccc2)oc2c1ccc1ccccc12 [7,8-benzoflavone]",inhibition of mouse BCRP,mouse BCRP,weak inhibitors
same,effect of coadministered flavonoid on the pharmacokinetics of topotecan,[1],no significant effects
same,inhibition of human BCRP,human BCRP [2],potent inhibitors
COc1ccc2c3c([nH]c2c1)[C@H](CC(C)C)N1C(=O)[C@H](CCC(=O)OC(C)(C)C)NC(=O)[C@@H]1C3 [Ko143],internalization of MX when co-administered with inhibitor,HeLa cells [3]; 1 μM Ko143 with MX,considerably high number of cells that internalized MX
O=c1cc(-c2ccccc2)oc2cc(O)cc(O)c12 [chrysin],inhibition of mouse BCRP,mouse BCRP,weak inhibitors
same,effect of coadministered flavonoid on the pharmacokinetics of topotecan,[1],no significant effects
same,inhibition of human BCRP,human BCRP [2],potent inhibitors
O=C1c2c(O)ccc(O)c2C(=O)c2c(NCCNCCO)ccc(NCCNCCO)c21 [mitoxantrone],IC50,"HeLa cells [4]; Homo sapiens, in the presence of Ko143 (1 μM)",0.62 µM
same,IC50,"HeLa cells [4]; Homo sapiens, HeLa, mitoxantrone alone",5.83 µM
same,IC50,"HeLa cells [4]; Homo sapiens, HeLa, with 1 μM quercetin",1.13 µM
same,IC50,"HeLa cells [4]; Homo sapiens, HeLa, with 100 μM quercetin",0.478 µM
same,IC50 of mitoxantrone as percentage of the control value (mitoxantrone alone),HeLa cells [4]; with 1 μM quercetin,19.3%
same,IC50 of mitoxantrone as percentage of the control value (mitoxantrone alone),HeLa cells [4]; with 100 μM quercetin,8.2% and 8.23%
same,IC50,HeLa cells [4]; with 100 μM quercetin,0.48 µM
same,"percentage of cells with a significant uptake of MX, higher than at 2 h of treatment with MX alone",HeLa cells [3]; 4 h,17.2%
same,"percentage of cells with a significant uptake of MX, higher than at 2 h of treatment with MX alone",HeLa cells [3]; 6 h,27.1%
same,"cellular uptake of MX, higher than at 2 h of treatment with MX alone","HeLa cells [3]; 1 μM MX with 1 μM quercetin, 4 h",30.2%
same,"cellular uptake of MX, higher than at 2 h of treatment with MX alone","HeLa cells [3]; 1 μM MX with 1 μM quercetin, 6 h",35.9%
same,"cellular uptake of MX, higher than at 2 h of treatment with MX alone","HeLa cells [3]; 1 μM MX with 100 μM quercetin, 4 h",45.3%
same,"cellular uptake of MX, higher than at 2 h of treatment with MX alone","HeLa cells [3]; 1 μM MX with 100 μM quercetin, 6 h",67.4%
"COc1cc2nc(N3CCN(C(=O)c4ccco4)CC3)nc(N)c2cc1OC [prazosin, Prazosin]",Km,human BCRP [5],128 µM
"O=c1c(O)c(-c2ccc(O)c(O)c2)oc2cc(O)cc(O)c12 [quercetin, Quercetin]",IC50,BCRP [6],6.9 µM
same,IC50,human BCRP [7],4.22 µM
same,Ki,human BCRP [7],3.91 µM
same,Cmax,[8],210 ng/mL
same,oral bioavailability,[8],5.3%
same,IC50,BCRP [9],7.6 µM
O=C(O)c1cc(/N=N/c2ccc(S(=O)(=O)Nc3ccccn3)cc2)ccc1O [sulfasalazine],"increase in absorption (AUC8h, Cmax) of sulfasalazine in knockout rats",[10],approximately 20 fold
same,AUC8h,"in vivo; male, SD, po, 2 mg/kg",44500 ± 11800 ng·min/mL
same,CL/F,"in vivo; male, SD, po, 2 mg/kg",33.2 ± 10.2 mL/min/kg
same,Cmax,"in vivo; male, SD, po, 2 mg/kg",179 ± 23.0 ng/mL
same,t1/2,"in vivo; male, SD, po, 2 mg/kg",4.03 ± 1.34 h
same,tmax,"in vivo; male, SD, po, 2 mg/kg",0.375 ± 0.145 h
same,AUC(0-t),"in vivo; male, SD, po, 2 mg/kg, AUC8h",428 ng·h/mL
same,CL/F,"in vivo; male, SD, po, 2 mg/kg, CL/F",52.5 ± 33.5 mL/min/kg
same,Cmax,"in vivo; male, SD, po, 2 mg/kg, Cmax",122 ± 23.2 ng/mL
same,half-life,"in vivo; male, SD, po, 2 mg/kg, t1/2",6.38 ± 1.85 h
same,tmax,"in vivo; male, SD, po, 2 mg/kg, tmax",0.5 h
same,"change in the elimination half-life (t1/2) of sulfasalazine, quercetin pretreatment vs control",in vivo,no significant change
